Results published in PMC3145672, “X-Ray Structure Reveals a New Class and Provides Insight into Evolution of Alkaline Phosphatases” (PLoS ONE, 2011).

Target: T1, SPAP (Sphingomonas sp., UniProt A1YYW7)
T1 construct: gene phoK; recombinant in E. coli, Ni-NTA purified; precursor 559 residues, predicted signal peptide 1-19; residues 31-556 visible in crystal; active monomer, 58 kD by SEC
T1 sequence (A1YYW7 20-559): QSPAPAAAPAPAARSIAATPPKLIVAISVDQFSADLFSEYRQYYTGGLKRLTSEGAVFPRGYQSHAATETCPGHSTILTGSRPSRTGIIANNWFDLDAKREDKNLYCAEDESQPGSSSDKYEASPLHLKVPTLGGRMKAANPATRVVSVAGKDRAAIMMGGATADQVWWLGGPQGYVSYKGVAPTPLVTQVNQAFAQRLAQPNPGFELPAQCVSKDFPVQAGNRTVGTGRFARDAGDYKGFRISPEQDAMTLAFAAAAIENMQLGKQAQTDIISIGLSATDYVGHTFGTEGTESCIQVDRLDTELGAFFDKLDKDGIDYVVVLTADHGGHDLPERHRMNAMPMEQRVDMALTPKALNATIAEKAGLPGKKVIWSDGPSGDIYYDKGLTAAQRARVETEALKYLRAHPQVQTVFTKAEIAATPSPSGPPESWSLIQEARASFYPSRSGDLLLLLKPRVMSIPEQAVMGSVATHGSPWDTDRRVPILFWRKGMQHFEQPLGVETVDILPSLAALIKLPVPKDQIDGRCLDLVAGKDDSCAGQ
Assay: release of pNP at […] nm
Assay type: biochemical
Settings: pH 8.5, room temperature; size exclusion chromatography fraction

SMILES: O=[N+]([O-])c1ccc(OP(=O)(O)O)cc1 [pNPP]
- release of pNP at 405 nm: Catalytic activity of eluted SPAP fraction was checked, at room temperature
